This note sets out measurements from patent US8476197B2, “Aminopropenoates as fungicides” (priority 2009, dated 2013).

The structures appear in SMILES notation. Marks after values point to notes of the source that are not given here.

The conditions of the first data set: pH 2.3.
As to `CC(C)C(C)NC(=C(C#N)C(=O)NC1CSC1)c1cccnc1Cl` (stereo not shown) [Compound 1452], the “Log P” value was 3.22^[c]; 3.22^[b].
Same read-out and setting: the figure for `CCOC(=O)C(C#N)=C(Nc1ccccc1SC)c1ccc(C)nc1Cl` [Compound 343] is 3.57; for `CCOC(=O)C(C#N)=C(Nc1ccccc1OC(F)(F)F)c1cccnc1Cl` [Compound 529] it is 3.52.
Consider `CCCCCCC(C)NC(=C(C#N)C(=O)OCC)c1cccnc1Cl` (racemic) [Compound 819], for which the “Log P” value is recorded as 4.53.

The data set is the same for the next values; noted with them: pH 2.7.
For `CC(C)[C@H](C)N/C(=C(/C#N)C(=O)NC1COC1)c1cn(C)nc1C(F)F` [Compound 1298], the “Log P” value is 1.84^[a].
Same read-out and setting: the figure for `COCC(C)NC(=C(C#N)C(=O)OC)c1sc(C)nc1C(F)(F)F` (racemic) [Compound 663] is 2.75^[a].
For the compound `C=Cc1nn(C)cc1C(NC(C)C(C)C)=C(C#N)C(=O)OCC` (stereo not shown) [Compound 971], the “Log P” value is 3.06^[a].
For `CCOC(=O)C(C#N)=C(NCC1(C)CCCO1)c1cccnc1Cl` (stereo not shown) [Compound 1357], the “Log P” value was 2.7^[a].
In the case of `CCOC(=O)C(C#N)=C(NC(C)c1nccs1)c1ncccc1Br` (racemic) [Compound 224], the “Log P” value is 2.53^[a].
The same measure, in the same setting: the figure for `COC(=O)C(C#N)=C(NC(C)c1ccccn1)c1cn(C)nc1C(F)F` (racemic) [Compound 59] is 2.05^[a].
With `CCOC(=O)C(C#N)=C(Nc1ccc(N(C)C)cc1)c1sccc1C(F)(F)F` [Compound 484], the “Log P” value was 3.89^[a].
Take `CCOC(=O)C(C#N)=C(NC(C(=O)OC)C(C)C)c1sccc1C(F)(F)F` (stereo not shown) [Compound 659]: the “Log P” value was 3.62^[a].
In the case of `CCOC(=O)C(C#N)=C(NC(C)C(C)C)c1c(C(F)(F)F)nn(C)c1Cl` (racemic) [Compound 1001], the “Log P” value is 4.06^[a].
Still for that read-out and setting: as for `CNC(=O)C(C)NC(=C(C#N)C(=O)OC)c1cn(C)nc1C(F)F` (stereo not shown) [Compound 601], the figure is 1.38^[a]; as for `CCOC(=O)C(C#N)=C(Nc1ccccc1SCC)c1cn(C)nc1C(F)F` [Compound 1228], 3.46^[a].
Still for that read-out and setting: the figure for `CCOC(=O)C(C#N)=C(NC(C)c1ccc2ccccc2n1)c1cccnc1Cl` (stereo not shown) [Compound 1441] is 3.37^[a]; for `COC(=O)C(C#N)=C(NC(C)(C)c1ccccc1Cl)c1cccnc1Cl` [Compound 393] it is 3.15^[a]; for `CCOC(=O)C(C#N)=C(NC(C)C1CC1)c1cn(C)nc1C(Cl)Cl` (racemic) [Compound 1560] it is 3.23^[a].
Still for that read-out and setting: the figure for `CCOC(=O)C(C#N)=C(NCc1nccs1)c1cnccc1C(F)(F)F` [Compound 272] is 2.4^[a]; for `CC(NC(=C(C#N)C(=O)N1CCOCC1)c1cn(C)nc1C(F)F)c1nccs1` (stereo not shown) [Compound 1327] it is 1.79^[a]; for `CCOC(=O)C(C#N)=C(NC(C)C(=O)OCC)c1cn(C)nc1C(F)F` (stereo not shown) [Compound 686] it is 2.62^[a].
With `CCOC(=O)C(C#N)=C(NC(C)C1CC1)c1ccnc(C(F)(F)F)c1Cl` (stereo not shown) [Compound 1622], the “Log P” value is 3.85^[a].
Turning to `CCOC(=O)C(C#N)=C(NC(C)C(C)C)c1ccncc1F` (stereo not shown) [Compound 997], the “Log P” value is 3.08^[a].
As to `CCOC(=O)C(C#N)=C(Nc1ccccc1Br)c1cc(C)oc1C` [Compound 422], the “Log P” value was 3.99^[a].
Regarding `CCOC(=O)C(C#N)=C(NC(C)C1CC1)c1cc(Cl)ncc1Cl` (racemic) [Compound 896], the “Log P” value was 3.69^[a].
In the case of `COC(=O)C(C#N)=C(NC(C)C1(Cl)CC1)c1sc(C)nc1C(F)(F)F` (stereo not shown) [Compound 770], the “Log P” value was 3.53^[a].
As to `CCOC(=O)C(C#N)=C(NC(CC)COC)c1cccnc1Cl` (stereo not shown) [Compound 1367], the “Log P” value was 2.92^[a].
Still for that read-out and setting: the figure for `CCOC(=O)C(C#N)=C(NC(C)C(F)(F)F)c1cn(C)nc1C(F)F` (racemic) [Compound 1253] is 2.92^[a]; for `CCOC(=O)C(C#N)=C(NC(C)c1nccs1)c1ncc(Cl)cc1Cl` (racemic) [Compound 225] it is 3.11^[a]; for `CCOC(=O)C(C#N)=C(NC(C)C(=O)NC)c1cc(Cl)sc1Cl` (stereo not shown) [Compound 1632] it is 2.46^[a].
Regarding `CCOC(=O)C(C#N)=C(NC(C)CSc1ccc(Cl)c(Cl)c1)c1cccnc1Cl` (stereo not shown) [Compound 1158], the “Log P” value is 4.41^[a].
`CCOC(=O)C(C#N)=C(NC1CC2CCC1C2)c1cn(C)nc1C(F)F` (stereo not shown) [Compound 1144]: the “Log P” value was 3.46^[a].
Regarding `CCOC(=O)C(C#N)=C(NC(C)C(C)OC)c1cnn(C)c1Cl` (mixture of isomers) [Compound 1543], the “Log P” value is 2.67^[a].
Regarding `CCOC(=O)C(C#N)=C(NC(C)C(C)CC)c1cnn(C)c1Cl` (mixture of isomers) [Compound 1544], the “Log P” value was 3.6^[a].
Regarding `CCOC(=O)C(C#N)=C(NC(C)CSc1ccc(Cl)c(Cl)c1)c1cn(C)nc1C(F)F` (racemic) [Compound 1236], the “Log P” value is 4.2^[a].
In the case of `CCOC(=O)C(C#N)=C(NCc1ccc(C)c(C)n1)c1cccnc1Cl` [Compound 1526], the “Log P” value is 1.91^[a].
In the case of `CCOC(=O)C(C#N)=C(NC(c1cc2ccccc2s1)C(F)(F)F)c1ccsc1Br` (racemic) [Compound 130], the “Log P” value was 4.87^[a].
Same read-out and setting: the figure for `CCOC(=O)C(C#N)=C(NCc1ccc(F)cn1)c1cn(C)nc1C(F)F` [Compound 203] is 2.33^[a]; for `CCOC(=O)C(C#N)=C(NC(C)C(=O)NC)c1sccc1Cl` (stereo not shown) [Compound 645] it is 2.08^[a].
Consider `CCOC(=O)C(C#N)=C(NC(C)c1c(Cl)cccc1Cl)c1cnn(C)c1Cl` (stereo not shown) [Compound 1559], for which the “Log P” value was 3.78^[a].
The same measure, in the same setting: the figure for `COC(=O)C(C#N)=C(NCC#N)c1sc(C)nc1C(F)(F)F` [Compound 787] is 2.01^[a]; for `CCOC(=O)C(C#N)=C(NC(C)CC1CC1)c1cn(C)nc1C(F)F` (stereo not shown) [Compound 1136] it is 3.23^[a].
The same measure, in the same setting: as for `CC#CC(C)(C)NC(=C(C#N)C(=O)OCC)c1sccc1Br` [Compound 1041], the figure is 3.85^[a].
Still for that read-out and setting: as for `COC(=O)C(C#N)=C(Nc1cccc(SC)c1)c1sc(C)nc1C(F)(F)F` [Compound 504], the figure is 3.53^[a]; as for `CCOC(=O)C(C#N)=C(NCc1nc(C)cs1)c1cn(C)nc1C(F)F` [Compound 189], 2.3^[a]; as for `COC(=O)C(C#N)=C(NC1(c2ccccc2Cl)CC1)c1cccnc1Cl` [Compound 382], 2.61^[a].
As to `CCOC(=O)C(C#N)=C(NC(C)CCCC(C)C)c1sc(C)nc1C(F)(F)F` (stereo not shown) [Compound 929], the “Log P” value is 5.14^[a].
Consider `CCOCC(C)NC(=C(C#N)C(=O)OC)c1cccnc1Cl` (stereo not shown) [Compound 624], for which the “Log P” value is 2.42^[a].
The same measure, in the same setting: as for `CCOC(=O)C(C#N)=C(NC(C)COC)c1ccnc(C(F)(F)F)c1Cl` (stereo not shown) [Compound 1623], the figure is 3.46^[a].
Still for that read-out and setting: the figure for `CCOC(=O)C(C#N)=C(NC(C)Cc1c[nH]c2ccccc12)c1nsc(Cl)c1Cl` (racemic) [Compound 54] is 4.1^[a]; for `CCOC(=O)C(C#N)=C(NC(C)c1ccccn1)c1ccncc1C(F)(F)F` (racemic) [Compound 1394] it is 2.7^[a]; for `C=CCCCC(C=C)NC(=C(C#N)C(=O)OCC)c1c(C)nn(C)c1Cl` (racemic) [Compound 1013] it is 4.04^[a].
Take `COC(=O)C(C#N)=C(NC(C)C(N)=O)c1cn(C)nc1C(F)F` (stereo not shown) [Compound 598]: the “Log P” value was 1.3^[a].
Regarding `CCOC(=O)C(C#N)=C(NC(C)c1nc2c(s1)CCCC2)c1cccnc1Cl` (racemic) [Compound 1548], the “Log P” value was 3.21^[a].
In the case of `CCOC(=O)C(C#N)=C(NC(C)(C)C(C)(C)C)c1sccc1Br` [Compound 755], the “Log P” value is 4.67^[a].
Regarding `CCOC(=O)C(C#N)=C(Nc1ccccc1SC(F)(F)C(F)Cl)c1cc(C)oc1C` (stereo not shown) [Compound 418], the “Log P” value is 4.25^[a].
The same measure, in the same setting: the figure for `CCOC(=O)C(C#N)=C(NC(C)(C)CC)c1cn(C)nc1C(F)F` [Compound 1421] is 2.96^[a]; for `CC(C)C(C)NC(=C(C#N)C(=O)N1CCSC1C)c1cccnc1Cl` (stereo not shown) [Compound 1615] it is 3.6^[a]; for `CCOC(=O)C(C#N)=C(NC(C)c1ccccc1)c1cccnc1Cl` (stereo not shown) [Compound 1151] it is 3.48^[a].
For the compound `CCCCCCC(C)NC(=C(C#N)C(=O)OCC)c1cn(C)nc1C(F)F` (racemic) [Compound 817], the “Log P” value is 4.36^[a].
With `CCOC(=O)C(C#N)=C(Nc1ccc(C(C)C)cc1)c1sccc1Br` [Compound 490], the “Log P” value was 4.73^[a].
For `CC#CC1(NC(=C(C#N)C(=O)OCC)c2cn(C)nc2C(F)F)CCCCC1` [Compound 1336], the log partition coefficient (Log P) is 3.71^[a].
For the compound `CC#CC(C)(C)NC(=C(C#N)C(=O)OCC)c1sccc1C(F)(F)F` [Compound 1040], the “Log P” value is 3.92^[a].
For `C=CCOC(=O)C(C#N)=C(NC(C)c1nccs1)c1cccnc1Cl` (stereo not shown) [Compound 1490], the “Log P” value was 2.62^[a].
Consider `CCOC(=O)C(C#N)=C(NC(C)C(C)C)c1cn(C)nc1C(F)(F)F` (stereo not shown) [Compound 939], for which the “Log P” value was 3.64^[a].
As to `CCOC(=O)C(C#N)=C(NCc1nc(C(F)(F)F)cs1)c1ccsc1Br` [Compound 249], the “Log P” value was 3.42^[a].
Same read-out and setting: as for `CCOC(=O)C(C#N)=C(NC(C)c1ccccn1)c1cnn(C)c1C(F)F` (stereo not shown) [Compound 1300], the figure is 2.41^[a].
As for `CCCC(CC)NC(=C(C#N)C(=O)OCC)c1cn(C)nc1C(F)F` (stereo not shown) [Compound 1343], the “Log P” value is 3.51^[a].
Still for that read-out and setting: the figure for `CCOC(=O)C(C#N)=C(NC(C)C1=NCCS1)c1cccnc1Cl` (stereo not shown) [Compound 1629] is 2.5^[a]; for `CCOC(=O)C(C#N)=C(NC(C)C1CC1)c1cc(C)oc1C` (stereo not shown) [Compound 879] it is 3.63^[a].

Staying with this data set, now noted: pH 7.5.
`CC(C)C(C)NC(=C(C#N)C(=O)NC1CSC1)c1cccnc1Cl` (stereo not shown) [Compound 1452]: the “Log P” value is 3.22^[c]; 3.22^[b].
With `CCOC(=O)C(C#N)=C(Nc1ccccc1SC)c1ccc(C)nc1Cl` [Compound 343], the “Log P” value is 3.41.
In the case of `COC(=O)C(C#N)=C(NC(C)c1nc(C)c(C)s1)c1cccnc1Cl` (stereo not shown) [Compound 19], the “Log P” value worked out at 2.69.
With `CCOC(=O)C(C#N)=C(Nc1ccccc1OC(F)(F)F)c1cccnc1Cl` [Compound 529], the “Log P” value turned out to be 3.46.
As for `COCC(C)NC(=C(C#N)C(=O)OC)c1cccnc1Cl` (racemic) [Compound 564], the “Log P” value came out at 2.13.
For `CCCCCCC(C)NC(=C(C#N)C(=O)OCC)c1cccnc1Cl` (racemic) [Compound 819], the “Log P” value is listed as 4.55.

One may read the Log P as a log measure of how a compound divides between an organic and an aqueous phase. A lower Log P goes with a more hydrophilic compound.
